ChEMBL document CHEMBL1201862, “PubChem BioAssay data set” (2004)
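Method: 48-hour compound exposure of cells in 96-well plates, five concentrations, linear interpolation of endpoints. The concentration for 50% growth inhibition is given as GI50.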 The source made the active and inactive calls. Cut-off read from the data, not from the text of the source: active = GI50 up to about 1.1 µM and inactive = higher.

Assays:
Experiment in all cases: NCI tumour cell line growth inhibition, 48 h
SNB-19 = system: SNB-19
NCI-H460 = system: NCI-H460
SK-MEL-5 = system: SK-MEL-5
786-0 = system: 786-0
HCT-116 = system: HCT-116
SW-620 = system: SW-620
SK-MEL-2 = system: SK-MEL-2
M14 = system: M14
ACHN = system: ACHN
HCT-15 = system: HCT-15
OVCAR-5 = system: OVCAR-5
MDA-MB-231 = system: MDA-MB-231
A498 = system: A498
HL-60 = system: HL-60
HT-29 = system: HT-29
TK-10 = system: TK-10
CCRF-CEM = system: CCRF-CEM
COLO 205 = system: COLO 205
HOP-62 = system: HOP-62
NCI-H23 = system: NCI-H23
K562 = system: K562
NCI-H226 = system: NCI-H226
BT-549 = system: BT-549
PC-3 = system: PC-3
NCI/ADR-RES = system: NCI/ADR-RES
SK-MEL-28 = system: SK-MEL-28
SF-539 = system: SF-539
A549 = system: A549
SK-OV-3 = system: SK-OV-3
U-251 = system: U-251
MDA-MB-435 = system: MDA-MB-435
SNB-75 = system: SNB-75
MDA-N = system: MDA-N
UACC-257 = system: UACC-257
UO-31 = system: UO-31
NCI-H522 = system: NCI-H522
SF-295 = system: SF-295
MOLT-4 = system: MOLT-4
DU-145 = system: DU-145
KM12 = system: KM12
RPMI-8226 = system: RPMI-8226
CAKI-1 = system: CAKI-1
SF-268 = system: SF-268
EKVX = system: EKVX
SR = system: SR
UACC-62 = system: UACC-62
OVCAR-8 = system: OVCAR-8
RXF 393 = system: RXF 393
HCC 2998 = system: HCC 2998
OVCAR-4 = system: OVCAR-4
OVCAR-3 = system: OVCAR-3
SN12C = system: SN12C
MCF7 = system: MCF7
LOX IMVI = system: LOX IMVI
IGROV-1 = system: IGROV-1
HOP-92 = system: HOP-92

With `CSc1nncc(-c2cc3c(c(SC)n2)CCCC3)n1` the GI50 (SNB-19) was > 100 µM (inactive), the GI50 (NCI-H460) was > 100 µM (inactive) and the GI50 (SK-MEL-5) was > 100 µM (inactive). For the same compound, the GI50 (786-0) was > 100 µM (inactive), the GI50 (HCT-116) was > 100 µM (inactive) and the GI50 (SW-620) was > 100 µM (inactive). For the same compound, the GI50 (SK-MEL-2) was > 100 µM (inactive), the GI50 (M14) was > 100 µM (inactive) and the GI50 (ACHN) was > 100 µM (inactive). For the same compound, the GI50 (HCT-15) was over 100 µM, the GI50 (OVCAR-5) was > 100 µM (inactive) and the GI50 (MDA-MB-231) was > 100 µM (inactive). For the same compound, the GI50 (A498) was > 100 µM (inactive), the GI50 (HL-60) was > 100 µM (inactive) and the GI50 (HT-29) was > 100 µM (inactive). For the same compound, the GI50 (TK-10) was > 100 µM (inactive), the GI50 (CCRF-CEM) was > 100 µM (inactive) and the GI50 (COLO 205) was > 100 µM (inactive). The GI50 (HOP-62) was 30.5 µM (inactive), the GI50 (NCI-H23) was > 100 µM (inactive) and the GI50 (K562) was > 100 µM (inactive). The GI50 (NCI-H226) was > 100 µM (inactive), the GI50 (BT-549) was > 100 µM (inactive) and the GI50 (PC-3) was > 100 µM (inactive). The GI50 (NCI/ADR-RES) was > 100 µM (inactive), the GI50 (SK-MEL-28) was > 100 µM (inactive) and the GI50 (SF-539) was > 100 µM (inactive). For the same compound, the GI50 (A549) was > 100 µM (inactive), the GI50 (SK-OV-3) was 40.1 µM (inactive) and the GI50 (U-251) was > 100 µM (inactive). For the same compound, the GI50 (MDA-MB-435) was > 100 µM (inactive), the GI50 (SNB-75) was 60.7 µM (inactive) and the GI50 (MDA-N) was > 100 µM (inactive). The GI50 (UACC-257) was > 100 µM (inactive), the GI50 (UO-31) was > 100 µM (inactive) and the GI50 (NCI-H522) was 53.7 µM (inactive). The GI50 (SF-295) was > 100 µM (inactive), the GI50 (MOLT-4) was > 100 µM (inactive) and the GI50 (DU-145) was > 100 µM (inactive). The GI50 (KM12) was > 100 µM (inactive), the GI50 (RPMI-8226) was > 100 µM (inactive) and the GI50 (CAKI-1) was 61.5 µM (inactive). The GI50 (SF-268) was 26.9 µM (inactive), the GI50 (EKVX) was > 100 µM (inactive) and the GI50 (SR) was > 100 µM (inactive). The GI50 (UACC-62) was > 100 µM (inactive), the GI50 (OVCAR-8) was 54.8 µM (inactive) and the GI50 (RXF 393) was 47.3 µM (inactive). The GI50 (HCC 2998) was > 100 µM (inactive), the GI50 (OVCAR-4) was > 100 µM (inactive) and the GI50 (OVCAR-3) was > 100 µM (inactive). For the same compound, the GI50 (SN12C) was > 100 µM (inactive).

In the case of `O=c1[nH]nc(Cc2ccccc2)n1-n1cnnc1`, the GI50 (SNB-19) is reported as > 100 µM (inactive), the GI50 (SK-MEL-5) is reported as > 100 µM (inactive) and the GI50 (786-0) is reported as > 100 µM (inactive). The GI50 (HCT-116) was > 100 µM (inactive), the GI50 (SW-620) was > 100 µM (inactive) and the GI50 (SK-MEL-2) was > 100 µM (inactive). The GI50 (M14) was > 100 µM (inactive), the GI50 (ACHN) was > 100 µM (inactive) and the GI50 (HCT-15) was over 100 µM. For the same compound, the GI50 (OVCAR-5) was > 100 µM (inactive), the GI50 (MDA-MB-231) was > 100 µM (inactive) and the GI50 (HT-29) was > 100 µM (inactive). For the same compound, the GI50 (TK-10) was > 100 µM (inactive), the GI50 (CCRF-CEM) was > 100 µM (inactive) and the GI50 (COLO 205) was > 100 µM (inactive). The GI50 (HOP-62) was > 100 µM (inactive), the GI50 (NCI-H23) was > 100 µM (inactive) and the GI50 (K562) was > 100 µM (inactive). For the same compound, the GI50 (BT-549) was > 100 µM (inactive), the GI50 (PC-3) was > 100 µM (inactive) and the GI50 (NCI/ADR-RES) was > 100 µM (inactive). For the same compound, the GI50 (MCF7) was > 100 µM (inactive), the GI50 (SK-MEL-28) was > 100 µM (inactive) and the GI50 (LOX IMVI) was > 100 µM (inactive). The GI50 (SF-539) was > 100 µM (inactive), the GI50 (A549) was > 100 µM (inactive) and the GI50 (SK-OV-3) was > 100 µM (inactive). For the same compound, the GI50 (U-251) was > 100 µM (inactive), the GI50 (MDA-MB-435) was > 100 µM (inactive) and the GI50 (SNB-75) was > 100 µM (inactive). The GI50 (MDA-N) was > 100 µM (inactive), the GI50 (UACC-257) was > 100 µM (inactive) and the GI50 (UO-31) was > 100 µM (inactive). For the same compound, the GI50 (NCI-H522) was > 100 µM (inactive), the GI50 (IGROV-1) was > 100 µM (inactive) and the GI50 (SF-295) was > 100 µM (inactive). For the same compound, the GI50 (MOLT-4) was > 100 µM (inactive), the GI50 (DU-145) was > 100 µM (inactive) and the GI50 (KM12) was > 100 µM (inactive). For the same compound, the GI50 (RPMI-8226) was > 100 µM (inactive), the GI50 (SF-268) was > 100 µM (inactive) and the GI50 (EKVX) was > 100 µM (inactive). For the same compound, the GI50 (SR) was > 100 µM (inactive), the GI50 (UACC-62) was > 100 µM (inactive) and the GI50 (OVCAR-8) was > 100 µM (inactive). The GI50 (RXF 393) was > 100 µM (inactive), the GI50 (HCC 2998) was > 100 µM (inactive) and the GI50 (HOP-92) was > 100 µM (inactive). For the same compound, the GI50 (OVCAR-4) was > 100 µM (inactive), the GI50 (OVCAR-3) was > 100 µM (inactive) and the GI50 (SN12C) was > 100 µM (inactive).
